Entries after “also recorded” stand apart in the source; their conditions may differ.

Data set [1] deals with T1, fibrin (acellular clot phantoms) (Homo sapiens, UniProt P02671+P02675+P02679).
T1 construct: 100 μL of human plasma was quickly mixed with 3 unit of thrombin solution; from tissue; host or cells: human plasma clotted with thrombin
T1 sequence (P02671 20-644 isoform P02671-2 limits assumed): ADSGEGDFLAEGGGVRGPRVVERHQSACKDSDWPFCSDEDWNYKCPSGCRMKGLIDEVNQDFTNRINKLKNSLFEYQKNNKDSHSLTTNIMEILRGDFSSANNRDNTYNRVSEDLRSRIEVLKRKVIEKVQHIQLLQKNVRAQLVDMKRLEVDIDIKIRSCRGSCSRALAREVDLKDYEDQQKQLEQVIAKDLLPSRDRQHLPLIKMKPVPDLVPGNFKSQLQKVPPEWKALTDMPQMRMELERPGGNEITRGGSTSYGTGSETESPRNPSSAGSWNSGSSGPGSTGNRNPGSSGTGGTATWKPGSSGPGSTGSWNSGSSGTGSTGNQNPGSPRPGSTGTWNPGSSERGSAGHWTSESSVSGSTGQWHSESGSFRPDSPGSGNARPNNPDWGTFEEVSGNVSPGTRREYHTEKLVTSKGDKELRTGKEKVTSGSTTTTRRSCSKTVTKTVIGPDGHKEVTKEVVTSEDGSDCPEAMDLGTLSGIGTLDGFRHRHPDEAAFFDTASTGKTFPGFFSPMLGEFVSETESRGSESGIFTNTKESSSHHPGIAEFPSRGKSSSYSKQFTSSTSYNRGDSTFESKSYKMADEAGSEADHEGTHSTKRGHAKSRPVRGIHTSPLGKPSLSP
T1 sequence (P02675 45-491 limits assumed): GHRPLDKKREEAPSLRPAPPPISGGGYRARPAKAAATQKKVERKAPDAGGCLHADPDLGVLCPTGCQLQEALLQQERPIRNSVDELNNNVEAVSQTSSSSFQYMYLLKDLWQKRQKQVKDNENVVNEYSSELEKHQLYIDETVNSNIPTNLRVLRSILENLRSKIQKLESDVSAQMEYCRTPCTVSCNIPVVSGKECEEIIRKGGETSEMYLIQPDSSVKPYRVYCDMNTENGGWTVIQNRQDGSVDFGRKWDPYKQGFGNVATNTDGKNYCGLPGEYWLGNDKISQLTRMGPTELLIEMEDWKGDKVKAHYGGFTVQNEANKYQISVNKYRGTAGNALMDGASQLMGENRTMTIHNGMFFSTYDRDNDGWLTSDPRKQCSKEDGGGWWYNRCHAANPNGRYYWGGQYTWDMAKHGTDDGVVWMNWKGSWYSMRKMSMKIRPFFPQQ
T1 sequence (P02679 27-437 isoform P02679-2 limits assumed): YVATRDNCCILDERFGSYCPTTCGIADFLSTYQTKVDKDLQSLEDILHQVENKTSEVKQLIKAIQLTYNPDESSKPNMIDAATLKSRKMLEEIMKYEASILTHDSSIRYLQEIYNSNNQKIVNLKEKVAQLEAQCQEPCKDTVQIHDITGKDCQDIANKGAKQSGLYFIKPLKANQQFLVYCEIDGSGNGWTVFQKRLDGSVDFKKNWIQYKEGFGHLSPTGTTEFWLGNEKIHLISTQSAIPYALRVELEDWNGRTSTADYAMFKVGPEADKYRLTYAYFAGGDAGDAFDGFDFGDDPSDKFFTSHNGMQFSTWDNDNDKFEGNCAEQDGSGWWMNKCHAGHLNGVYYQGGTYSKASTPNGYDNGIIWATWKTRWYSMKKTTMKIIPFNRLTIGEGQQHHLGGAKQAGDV
The data set is described as follows: Binding of 99mTc monomeric construct to acellular clot phantoms (Scatchard plot). Here is the method:
Clot phantoms were generated using a typical procedure wherein 100 μL of human plasma was quickly mixed with 3 unit of thrombin solution. The resulting solution was then transferred into a plastic cylinder tube. Once clots were formed, they were placed each in 4 mL 0.1 M PBS buffer, pH7.0 solution.
The fibrin-binding monomer construct labeled with ^99mTc (10 mCi/350 μg) was prepared and analyzed by TLC as described in the examples above. The construct was diluted to generate a dilution series comprising 1, 5, 10, 15, 25, and 30 μg peptide construct in a total volume of 0.5 mL 0.1 M PBS at pH 7.4.
The monomeric construct was then combined with clot phantoms and incubated for 30 min at 37° C. in a water bath. Clot phantoms were separated from the solution by centrifugation device, and radioactivity was measured in the clot and the supernatant using a calibrated dosimeter. The experiment was repeated for three times and data were analyzed by Scatchard plot and regression analysis (FIG. 3). […] The dissociation constant (Kd) and the number of binding sites per clot were also determined.

Data set [2] is described as follows: 99mTc label retention with excess cysteine, clot phantoms (Example 5). To be noted: 0.25 mg cysteine in 0.5 mL PBS, 120 min, 37° C. The class given is physicochemical. The procedure:
(§1) In a parallel experiment, binding of the fibrin-binding monomeric construct to acellular clot phantoms in the presence of excess cysteine, or in the presence of 50% serum was also tested. For excess cysteine conditions, 0.25 mg of cysteine in 0.5 mL PBS was also combined with the monomeric construct and clot phantoms. The experiment was conducted as described above, and incubated for 120 min at 37° C. in a water bath. […] Cys is used to test the stability of the metal on the agent, and binding of the agent without the metal would look like lower binding. Instability and loss of the metal in the presence of serum could have accounted for the lower binding of the monomeric peptide, but the metal was stable. […] Thus the peptide binding was interfered with by off-target association with something in serum, likely albumen. This was consistent with previous reports describing the serum binding of the monomeric fibrin-binding peptide.

Data set [3] concerns the target T1, fibrin (acellular clot phantoms). Nature of the data set: Clot phantom binding in presence of 50% serum (Example 5). Here is the method:
as §1

Data set [4] deals with T2, fibrin clot (Homo sapiens, UniProt P02671+P02675+P02679).
T2 construct: admixing 100 μl of fresh human plasma with 3 units thrombin (Sigma Chemical); from tissue; host or cells: fresh human plasma clotted with thrombin (Sigma Chemical)
T2 sequence (P02671 20-644 isoform P02671-2 limits assumed): T1 sequence (P02671 20-644 isoform P02671-2 limits assumed)
T2 sequence (P02675 45-491 limits assumed): T1 sequence (P02675 45-491 limits assumed)
T2 sequence (P02679 27-437 isoform P02679-2 limits assumed): T1 sequence (P02679 27-437 isoform P02679-2 limits assumed)
The data set is described as follows: Fibrin binding affinity, acellular fibrin clot assay (Hill slope model). To be noted: uniform fibrin clots in PBS, read-out: dissociation constant (Kd). The procedure: (§2) Acellular fibrin clot assays of probe affinity, radiolabel stability, and plasma interference: Acellular fibrin clots were used: 1) to characterize the binding affinity of ^99mTc-F1A and ^99mTc-F4A, 2) to assess the stability of ^99mTc chelation, and 3) to evaluate the extent of plasma interference of fibrin binding. Specifically, uniform clots were produced by quickly admixing 100 μl of fresh human plasma with 3 units thrombin (Sigma Chemical). The mixture was pipetted into uniform cylindrical plastic tubes. Once formed, clots were washed repeatedly in 0.1 M PBS buffer (pH 7.0) then stored in same until use at 4° C.
Fibrin binding affinity: ^99mTc-F1A or ^99mTc-F4A (20 μCi) were incubated with the clot samples at 37° C. for 30 minutes with 1, 5, 10, 15, 25, and 30 μg cold monomer supplemented with 0.1 M PBS pH 7.4 to bring each test volume total to 0.5 ml. The fibrin clots were separated from unbound radioactivity by repeated centrifugation and washing then counted in a calibrated well counter (Wizard 3, Perkin Elmer). Results, adjusted for decay, were used to estimate dissociation constant (kd) using the Hill slope model, Y=Bmax*X^h/(Kd^h+X^h) (MatLab). Total fibrin concentration was estimated from plasma fibrinogen estimated to be 0.735 nmoles per clot.

Data set [5] deals with T2, fibrin clot. Nature of the data set: Plasma interference on fibrin clot binding (50:50 plasma:PBS). Here is the method: as §2
Assessment of ^99mTc-F1A and ^99mTc-F4A radiolabel stability and plasma interference: Radiolabeled F1A and F4A were bound to clots in the presence of marked excess cysteine to evaluate the stability of the ^99mTc label in triplicate.^49 99mTc-F1A or ^99mTc-F4A (20 μCi) supplemented with 0.1 M PBS pH 7.4 (total volume of 0.5 ml) were incubated with fibrin clot samples at 37° C. for 30 minutes. Similarly, the 0.1 M PBS buffer diluted 50% with fresh human plasma (total volume of 0.5 ml) was used to assess potential matrix interference on radiolabeled peptide binding in triplicate. In both instances, fibrin clots were separated from unbound radioactivity by repeated centrifugation, washed, then counted in a calibrated well counter (Wizard 3, Perkin Elmer).

Data set [6] has as its system fibrin clots. The data set is described as follows: Ex vivo LVAD flow study using a mock loop. In kind it is binding. To be noted: 10,000 RPM, 6 L/min, 2 minutes, 50:50 plasma:PBS, 0.5 mCi. The procedure: The high shear (10,000 RPM) and high flow (6 L/min) of the LVAD, which is required to pump the entire circulating blood volume of the patient every minute, places severe demands on the binding affinity and clot retention of the nuclear probe. […] The ½″ plastic tubing circuit was filled with a 50:50 human plasma:PBS mixture (200 ml). Uniform fibrin clots were secured with a highly porous, thin gauze netting within a plastic ½″ chamber immediately proximal to the LVAD inlet secured. ^99mTc-F1A or ^99mTc-F4A were injected into the mock loop and allowed to target the clots at the full flux rate for 2 minutes.
Ex vivo LVAD flow study using a mock loop: A LVAD (Heartmate II) driven by a computer-controlled console was inserted into a 200 ml mock flow loop comprised of ½″ plastic tubing interconnecting a PBS/Fresh Plasma (50:50) reservoir, an injection port, a media drainage port, and an inline ½″ plastic chamber. Uniform fibrin clots produced by mixing fibrinogen, thrombin, and calcium and aged 24 hours were secured within the inline chamber using a highly porous, single thread layer of cotton gauze. […] Radioactive circulating plasma/PBS was drained and replaced with PBS, which circulated for 2 minutes to remove unbound radioactivity. Clot radioactivity was counted in a calibrated gamma well counter and the results adjusted for decay.

With “99mTc-labeled monomer: fibrin homing peptide QWECPYGLCWIQ linked through PEG2 spacer to technetium chelating sequence HHE [^99mTc-F1A]”, in data set [1], the “binding site per clot” value was determined as 8.48E+14 and the “binding site per mg” value worked out at 1.21E+15. Besides, the “effect of excess cysteine on coupling of the 99mTc radiolabel” value in data set [2] is “did not impact the secure coupling”. Besides, in data set [3], the “binding of labeled peptide to clot in presence of 50% serum” value was “greatly diminished”. For the same substance, the Kd (usually a measure of binding affinity in units of concentration) in data set [4] is approximately 10.2 µM. Further, the “fibrin clot binding in 50:50 plasma:PBS versus PBS” value in data set [5] is on record as “severely compromised; also recorded: dramatically reduced”. In addition, the “clot binding and retention in LVAD mock loop” value in data set [6] is “very low signal level; also recorded: very close to background level counts”.
